Marks after values point to notes of the source that are not given here.
How the values were obtained:
[1] = Bioelution in simulated gastric fluid; details: for Bioelution of Co in gastric fluid (% release), 2 h / Bioelution of Co in gastric fluid / cobalt release (µg Co/g sample), 2 h: simulated gastric fluid pH 1.5, 2 h, 37°C
[2] = Bioelution in simulated intestinal fluid; details: for Bioelution of Co in intestinal fluid (% release) / Bioelution of Co in intestinal fluid / cobalt release (µg Co/g sample): simulated intestinal fluid pH 7.4, 24 h
[3] = Mass balance study: urinary and fecal Co excretion after single oral gavage; assay type: in vivo, rat; details: single oral bolus 300 mg/kg bw (220 mg Co/kg bw), 72 h
rats = assay: Acute oral toxicity testing; assay type: in vivo, rat
Crl:CD(SD) rats [4] = assay: Subchronic 90-day oral RDT study with reproductive toxicity screening; assay type: in vivo, rat
[5] = Plasma toxicokinetic study; assay type: in vivo, rat; details: for C max / K el / t 1/2 / Bioavailability (relative): 300 mg test item/kg PO; for oral bioavailability: single oral bolus, males and females not distinguished; for Bioavailability (relative): vs CoCl2 IV
Crl:CD(SD) rats [6] = assay: Combined RDT study with reproduction/developmental toxicity screening test; assay type: in vivo, rat; details: for mean body weight of pups below the control: high dose; for premature deaths / NOAEL (F0 generation) / NOAEL (F1 generation) / NOAEL (reproductive toxicity): oral gavage; for premature deaths: all doses; for NOAEL (F0 generation) / NOAEL (F1 generation) / NOAEL (reproductive toxicity): rats
Crl:CD(SD) rats [7] = assay: Benchmark dose modeling; set-up: species or system rat; details: nonconstant variance
[8] = females, 73.4 mg Co/kg bw/day, end of 90-day oral exposure, experimental group
[9] = females, 220 mg Co/kg bw/day, end of 90-day oral exposure, experimental group
[10] = females, 734 mg Co/kg bw/day, end of 90-day oral exposure, experimental group
[11] = females, 734 mg Co/kg bw/day, recovery group, end of 28-day recovery period
[12] = females, 734 mg Co/kg bw/day, recovery group, end of 90-day oral exposure
[13] = males, 73.4 mg Co/kg bw/day, end of 90-day oral exposure, experimental group
[14] = males, 220 mg Co/kg bw/day, end of 90-day oral exposure, experimental group
[15] = males, 734 mg Co/kg bw/day, end of 90-day oral exposure, experimental group
[16] = males, 734 mg Co/kg bw/day, recovery group, end of 28-day recovery period
[17] = males, 734 mg Co/kg bw/day, recovery group, end of 90-day oral exposure
[18] = female HGB dataset, Exponential 5 model
[19] = male PLT dataset, Exponential 2 model

[O]=[Co][OH] [CoOOH, Cobalt oxyhydroxide]
Bioelution of Co in gastric fluid (% release), 2 h [1]: 0.85 % release | Bioelution of Co in gastric fluid / cobalt release (µg Co/g sample), 2 h ([1]; listed as Co Oxide Hydroxide): 4460 µg Co/g sample | Bioelution of Co in intestinal fluid (% release) [2]: 0.06 (24 h) % release | Bioelution of Co in intestinal fluid / cobalt release (µg Co/g sample) ([2]; listed as Co Oxide Hydroxide): 370 (24 h) µg Co/g sample

[O]=[Co].[O]=[Co][O][Co]=[O] [Co3O4, Tricobalt tetraoxide]
Fecal Excretion (%) ([3]; females): 95.2 % of Co applied | Sum of Urinary and Fecal Excretion (%) ([3]; females): 95.3 % of Co applied | Urinary Excretion (%) ([3]; females): 0.12 % of Co applied | Fecal Excretion (%) ([3]; males): 116.4 % of Co applied | Sum of Urinary and Fecal Excretion (%) ([3]; males): 116.5 % of Co applied | Urinary Excretion (%) ([3]; males): 0.13 % of Co applied | Acute LD50 (mg Co/kg bw) (rats; OECD 401 or 425): > 8076 mg Co/kg bw | Acute LD50 (mg substance/kg bw) (rats; OECD 401 or 425): exceeding 11 000 mg substance/kg bw | Acute LD50 (mg substance/kg bw) (rats; OECD 401 or 425, listed as Tricobalt Tetraoxide): > 11 000 mg substance/kg bw | premature deaths (Crl:CD(SD) rats [4]; 90-day oral gavage, all doses): None of the animals died prematurely | LOAEL (systemic) (Crl:CD(SD) rats [4]; 90-day oral gavage, rats): 734 mg Co/kg bw/day | NOAEL (Crl:CD(SD) rats [4]; 90-day oral gavage, rats): 220 mg Co/kg bw/day | NOAEL (reproductive) (Crl:CD(SD) rats [4]; 90-day oral gavage, rats): > 734 mg Co/kg bw/day | HCT, %Diff vs control (Crl:CD(SD) rats [4]; [8]): −0.6% | HCT, mean (Crl:CD(SD) rats [4]; [8]): 44.76% | HGB, %Diff vs control (Crl:CD(SD) rats [4]; [8]): +0.2% | HGB, mean (Crl:CD(SD) rats [4]; [8]): 9.51 mmol/L | RBC, mean (Crl:CD(SD) rats [4]; [8]): 8.17 ×10E6/µl | HCT, %Diff vs control (Crl:CD(SD) rats [4]; [9]): +4.4% | HCT, mean (Crl:CD(SD) rats [4]; [9]): 46.99% | HGB, %Diff vs control (Crl:CD(SD) rats [4]; [9]): +5.9% | HGB, mean (Crl:CD(SD) rats [4]; [9]): 10.09 mmol/L | RBC, %Diff vs control (Crl:CD(SD) rats [4]; [9]): +5.6% | RBC, mean (Crl:CD(SD) rats [4]; [9]): 8.74 ×10E6/µl | HCT, %Diff vs control (Crl:CD(SD) rats [4]; [10]): +13.9% | HCT, mean (Crl:CD(SD) rats [4]; [10]): 51.27% | HGB, %Diff vs control (Crl:CD(SD) rats [4]; [10]): +16.4% | HGB, mean (Crl:CD(SD) rats [4]; [10]): 11.09 mmol/L | RBC, %Diff vs control (Crl:CD(SD) rats [4]; [10]): +12.9% | RBC, mean (Crl:CD(SD) rats [4]; [10]): 9.35 ×10E6/µl | HCT, mean (Crl:CD(SD) rats [4]; [11]): • 40.76 • .530% | HGB, mean (Crl:CD(SD) rats [4]; [11]): • 9.28 • .450 mmol/l | RBC, mean (Crl:CD(SD) rats [4]; [11]): • 7.56 • .573 ×10E6/µl | HCT, mean (Crl:CD(SD) rats [4]; [12]): • 50.76 ^* • .013% | HGB, mean (Crl:CD(SD) rats [4]; [12]): • 10.86 ^* • .032 mmol/l | RBC, mean (Crl:CD(SD) rats [4]; [12]): • 9.12 • .17 ×10E6/µl | HCT, %Diff vs control (Crl:CD(SD) rats [4]; [13]): +2.6% | HCT, mean (Crl:CD(SD) rats [4]; [13]): 49.53% | HGB, %Diff vs control (Crl:CD(SD) rats [4]; [13]): +2.2% | HGB, mean (Crl:CD(SD) rats [4]; [13]): 10.29 mmol/L | PLT, %Diff vs control (Crl:CD(SD) rats [4]; [13]): +4.2% | PLT, mean (Crl:CD(SD) rats [4]; [13]): 896.5 ×10E3/µl | RBC, %Diff vs control (Crl:CD(SD) rats [4]; [13]): +1.1% | RBC, mean (Crl:CD(SD) rats [4]; [13]): 9.30 ×10E6/µl | HCT, %Diff vs control (Crl:CD(SD) rats [4]; [14]): +9.2% | HCT, mean (Crl:CD(SD) rats [4]; [14]): 52.73% | HGB, %Diff vs control (Crl:CD(SD) rats [4]; [14]): +9.5% | HGB, mean (Crl:CD(SD) rats [4]; [14]): 11.03 mmol/L | PLT, mean (Crl:CD(SD) rats [4]; [14]): 796.1 ×10E3/µl | RBC, %Diff vs control (Crl:CD(SD) rats [4]; [14]): +9.6% | RBC, mean (Crl:CD(SD) rats [4]; [14]): 10.08 ×10E6/µl | HCT, %Diff vs control (Crl:CD(SD) rats [4]; [15]): +24.2% | HCT, mean (Crl:CD(SD) rats [4]; [15]): 59.97% | HGB, %Diff vs control (Crl:CD(SD) rats [4]; [15]): +25.4% | HGB, mean (Crl:CD(SD) rats [4]; [15]): 12.63 mmol/L | PLT, mean (Crl:CD(SD) rats [4]; [15]): 573.9 ×10E3/µl | RBC, %Diff vs control (Crl:CD(SD) rats [4]; [15]): +22.7% | RBC, mean (Crl:CD(SD) rats [4]; [15]): 11.29 ×10E6/µl | HCT, mean (Crl:CD(SD) rats [4]; [16]): • 50.38 • .126% | HGB, mean (Crl:CD(SD) rats [4]; [16]): • 10.82 • .075 mmol/l | PLT, mean (Crl:CD(SD) rats [4]; [16]): • 882.4 • .285 ×10E3/µl | RBC, mean (Crl:CD(SD) rats [4]; [16]): • 9.47 • .052 ×10E6/µl | HCT, mean (Crl:CD(SD) rats [4]; [17]): • 60.96** • 9.1E−06% | HGB, mean (Crl:CD(SD) rats [4]; [17]): • 12.78** • 2.4E−06 mmol/l | PLT, mean (Crl:CD(SD) rats [4]; [17]): • 645.6** • .0085 ×10E3/µl | RBC, mean (Crl:CD(SD) rats [4]; [17]): • 11.3** • 7.1E−05 ×10E6/µl | C max ([5]; females): 1.10 ng/mL | K el ([5]; females): 0.0430 h⁻¹ | t 1/2 ([5]; females): 16.1 h | C max ([5]; males): 2.08 ng/mL | K el ([5]; males): 0.0402 h⁻¹ | t 1/2 ([5]; males): 17.3 h | oral bioavailability ([5]; rats): below 0.1% | food intake of dams reduced compared with the control (Crl:CD(SD) rats [6]; 220 mg Co/kg bw/day, lactation day 1): 30% | mean body weight of pups below the control (Crl:CD(SD) rats [6]; lactation day 0/1): up to 18% | mean body weight of pups below the control (Crl:CD(SD) rats [6]; lactation day 4): up to 21% | premature deaths (Crl:CD(SD) rats [6]): None of the animals died prematurely | NOAEL (F0 generation) (Crl:CD(SD) rats [6]): 734 mg Co/kg bw/day | NOAEL (F1 generation) (Crl:CD(SD) rats [6]): 220 mg Co/kg bw/day | NOAEL (reproductive toxicity) (Crl:CD(SD) rats [6]): > 734 mg test item/kg bw/day | Bioelution of Co in gastric fluid (% release), 2 h [1]: 0.2 % release | Bioelution of Co in gastric fluid / cobalt release (µg Co/g sample), 2 h [1]: 1460 µg Co/g sample | Bioelution of Co in intestinal fluid (% release) [2]: 0.05 (24 h) % release | Bioelution of Co in intestinal fluid / cobalt release (µg Co/g sample) [2]: 385 (24 h) µg Co/g sample | BMD1STD (Crl:CD(SD) rats [7]; [18]): 210 mg Co/kg bw/day | BMDL1STD (Crl:CD(SD) rats [7]; [18]): 115 mg Co/kg bw/day | BMD1STD (Crl:CD(SD) rats [7]; [19]): 317 mg Co/kg bw/day | BMDL1STD (Crl:CD(SD) rats [7]; [19]): 219 mg Co/kg bw/day

Cobalt sulfide [CoS]
Acute LD50 (mg Co/kg bw) (rats; OECD 401 or 425): > 7124 mg Co/kg bw | Acute LD50 (mg substance/kg bw) (rats; OECD 401 or 425): exceeding 11 000 mg substance/kg bw | Acute LD50 (mg substance/kg bw) (rats; OECD 401 or 425, listed as Co Sulfide): > 11 000 mg substance/kg bw | C max ([5]; females): 2.01 ng/mL | K el ([5]; females): 0.0464 h⁻¹ | t 1/2 ([5]; females): 14.9 h | Bioavailability (relative) ([5]; females): 0.09 (relative) % | C max ([5]; males): 2.01 ng/mL | K el ([5]; males): 0.0413 h⁻¹ | t 1/2 ([5]; males): 16.8 h | Bioavailability (relative) ([5]; males): 0.08 (relative) % | Bioavailability calculated from AUC as % of CoCl2 IV AUC, average of m + f: relative bioavailability ([5]; oral, rats, average of males and females): Relative bioavailability 0.08% | oral bioavailability ([5]; rats): below 0.1% | premature deaths (Crl:CD(SD) rats [6]): None of the exposed animals died prematurely | NOAEL (F0 generation) (Crl:CD(SD) rats [6]): 648 mg Co/kg bw/day | NOAEL (F1 generation) (Crl:CD(SD) rats [6]): > 648 mg Co/kg bw/day | NOAEL (reproductive toxicity) (Crl:CD(SD) rats [6]): > 648 mg Co/kg bw/day | solubility in gastric fluid ([1]; simulated gastric fluid pH 1.5): poorly soluble | Bioelution of Co in gastric fluid (% release), 2 h [1]: 0.58 % release | Bioelution of Co in gastric fluid / cobalt release (µg Co/g sample), 2 h ([1]; listed as Co Sulfide): 3820 µg Co/g sample | solubility in intestinal fluid ([2]; simulated intestinal fluid pH 7.4): poorly soluble | Bioelution of Co in intestinal fluid (% release) [2]: 0.33 (24 h) % release | Bioelution of Co in intestinal fluid / cobalt release (µg Co/g sample) ([2]; listed as Co Sulfide): 2180 (24 h) µg Co/g sample

Reference: PMC7098370 (Toxicological Sciences, 2020)
